Legend:
[1] = biological target: T1, delF508-CFTR-HRP (Homo sapiens, UniProt P13569, DEL508-508); assay: Measurement of delF508-CFTR-HRP surface expression in CFBE41o- cells (HRP luminescence); format: cell-based; conditions: for Emax: CFBE41o-, read-out: DelF508-CFTR-HRP Amax %; for EC50: mean of at least two replicates;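 as to DelF508-CFTR-HRP Amax %: percent efficacy relative to a reference CFTR corrector compound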
T1 construct: expressed in transfected cells
Outline: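 Stably transfected CFBE41o- cells carrying HRP in the fourth extracellular loop of delF508-CFTR, induced with 500 ng/mL doxycycline for 48 h, then compound-treated 24 h at 37° C (10-point, 3-fold, top 10 μM). Surface HRP detected by luminescent substrate; EC50 from logistic fit, triplicates, normalized to lowest-concentration median.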

[2] = biological target: T2, delF508-CFTR (Homo sapiens, UniProt P13569, DEL508-508); assay: delF508-CFTR functional activity in primary human bronchial epithelial cells (HBECs), Multi-Transepithelial Clamp Circuit (MTECC-24) assay, equivalent short circuit current; format: cell-based; conditions: primary CF HBECs; for MTECC24 CFHBEC-Amax %: relative to reference combination 2 μM 3-(6-(1-(2,2-difluorobenzo[d][1,3]dioxol-5-yl)cyclopropane-1-carboxamido)-3-methylpyridin-2-yl)benzoic acid (24 h) + 0.5 μM N-(2,4-di-tert-butyl-5-hydroxyphenyl)-4-oxo-1,4-dihydroquinoline-3-carboxamide; for EC50: test compound added 24 h before assay, potentiator (S)-3-amino-6-methoxy-N-(3,3,3-trifluoro-2-hydroxy-2-methylpropyl)-5-(trifluoromethyl)picolinamide present at assay, mean of at least two replicates, read-out: MTECC24 CFHBEC-EC50
T2 construct: functional activity of the CFTR channel (Chloride ion transport) in patient derived primary human bronchial epithelial cells; host or cells: patient-derived primary human bronchial epithelial cells (HBECs), delF508-CFTR
T2 sequence (P13569 with tags, fused parts or gaps DEL508-508): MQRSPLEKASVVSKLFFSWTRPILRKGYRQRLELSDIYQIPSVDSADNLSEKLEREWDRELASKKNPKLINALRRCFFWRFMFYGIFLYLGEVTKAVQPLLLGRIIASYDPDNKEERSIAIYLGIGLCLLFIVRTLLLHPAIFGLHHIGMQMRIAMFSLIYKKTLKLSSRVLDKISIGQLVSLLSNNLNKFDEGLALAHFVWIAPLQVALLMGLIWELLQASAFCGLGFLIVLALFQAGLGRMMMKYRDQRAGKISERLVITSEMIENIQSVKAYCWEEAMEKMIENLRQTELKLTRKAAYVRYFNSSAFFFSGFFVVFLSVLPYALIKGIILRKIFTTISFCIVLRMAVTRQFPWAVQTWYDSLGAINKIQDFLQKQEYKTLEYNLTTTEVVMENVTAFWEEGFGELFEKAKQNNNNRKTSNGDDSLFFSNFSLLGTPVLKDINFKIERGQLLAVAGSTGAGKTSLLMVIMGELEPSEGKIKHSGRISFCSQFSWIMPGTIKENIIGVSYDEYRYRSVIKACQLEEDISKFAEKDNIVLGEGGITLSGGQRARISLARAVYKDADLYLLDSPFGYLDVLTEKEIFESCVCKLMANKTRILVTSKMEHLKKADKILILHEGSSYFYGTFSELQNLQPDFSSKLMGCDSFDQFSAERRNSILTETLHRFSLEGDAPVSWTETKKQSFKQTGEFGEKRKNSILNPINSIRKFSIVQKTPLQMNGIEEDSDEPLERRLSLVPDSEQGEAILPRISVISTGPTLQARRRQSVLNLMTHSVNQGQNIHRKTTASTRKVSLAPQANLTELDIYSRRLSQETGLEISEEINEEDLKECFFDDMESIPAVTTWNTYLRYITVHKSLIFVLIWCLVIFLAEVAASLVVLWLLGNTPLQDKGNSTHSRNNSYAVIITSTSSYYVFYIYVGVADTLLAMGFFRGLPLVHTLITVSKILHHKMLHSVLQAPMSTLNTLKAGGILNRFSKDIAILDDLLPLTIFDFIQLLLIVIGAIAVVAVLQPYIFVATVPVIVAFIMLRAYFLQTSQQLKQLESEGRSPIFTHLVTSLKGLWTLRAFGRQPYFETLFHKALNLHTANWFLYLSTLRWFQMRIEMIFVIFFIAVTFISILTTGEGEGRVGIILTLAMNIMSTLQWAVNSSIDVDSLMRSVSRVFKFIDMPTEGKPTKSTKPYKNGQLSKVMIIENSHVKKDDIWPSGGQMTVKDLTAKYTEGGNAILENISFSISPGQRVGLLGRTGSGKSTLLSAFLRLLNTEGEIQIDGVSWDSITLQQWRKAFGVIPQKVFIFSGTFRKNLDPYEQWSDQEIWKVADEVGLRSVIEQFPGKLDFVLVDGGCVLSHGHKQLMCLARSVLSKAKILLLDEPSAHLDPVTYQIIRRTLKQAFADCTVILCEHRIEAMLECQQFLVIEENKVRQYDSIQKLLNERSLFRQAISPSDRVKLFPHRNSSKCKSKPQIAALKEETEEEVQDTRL
Outline: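 Patient-derived delF508 HBECs, grown at air-liquid interface about two weeks, were corrected with compound basolaterally for 24 h. Compound was then re-added apically and basolaterally in HEPES pH7.4 assay medium, with sequential modulators including forskolin and the picolinamide potentiator. Ieq was recorded, normalised to 0.1% DMSO wells, and EC50 fitted from 10-point curves.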

T1 sequence (P13569 with tags, fused parts or gaps DEL508-508): as above

| Emax [1] [%] | EC50 [1] [nM] | MTECC24 CFHBEC-Amax % [2] [%] | EC50 [2] [nM] | Compound |
| --- | --- | --- | --- | --- |
| 284 | 880 | 90 | 6 | Cc1ccc(C2CCCCC2)c(OC2(C(=O)NS(=O)(=O)c3cccc(N4CCC(CF)(NC(=O)OC(C)(C)C)CC4)n3)CC2)c1 [Example 2-42, Tert-butyl (1-(6-(N-(1-(2-cyclohexyl-5-methylphenoxy)cyclopropanecarbonyl)sulfamoyl)pyridin-2-yl)-4-(fluoromethyl)piperidin-4-yl)carbamate] |
| 816 | 2230 | 95 | 6 | Cc1ccc(C2CCCCC2)c(OC2(C(=O)NS(=O)(=O)c3cccc(NCC(C)O)n3)CC2)c1 (stereo not shown) [Example 2-45, 1-(2-Cyclohexyl-5-methylphenoxy)-N-((6-((2-hydroxypropyl)amino)pyridin-2-yl)sulfonyl)cyclopropane-1-carboxamide] |
| 813 | 2860 | 89 | 3 | Cc1ccc(C2CCCCC2)c(OC2(C(=O)NS(=O)(=O)c3cccc(NC[C@@H](C)O)n3)CC2)c1 [Example 2-46, (R)-1-(2-cyclohexyl-5-methylphenoxy)-N-((6-((2-hydroxypropyl)amino)pyridin-2-yl)sulfonyl)cyclopropane-1-carboxamide] |
| 747 | 2420 | 97 | 6 | Cc1ccc(C2CCCCC2)c(OC2(C(=O)NS(=O)(=O)c3cccc(NC[C@H](C)O)n3)CC2)c1 [Example 2-47, (S)-1-(2-Cyclonexyl-5-methylphenoxy)-N-((6-((2-hydroxypropyl)amino)pyridin-2-yl)sulfonyl)cyclopropane-1-carboxamide] |
| 620 | 2020 | 93 | 4 | Cc1ccc(C2CCCCC2)c(OC2(C(=O)NS(=O)(=O)c3cccc(N(C)CC(C)O)n3)CC2)c1 (stereo not shown) [Example 2-48] |
| 391 | 1050 | 102 | 5 | Cc1ccc(C2CCCCC2)c(OC2(C(=O)NS(=O)(=O)c3cccc(N4CCC(C)(O)CC4)n3)CC2)c1 [Example 2-49, 1-(2-Cyclohexyl-5-methylphenoxy)-N-((6-(4-hydroxy-4-methylpiperidin-1-yl)pyridin-2-yl)sulfonyl)cyclopropane-1-carboxamide] |
| 628 | 1270 | 93 | 4 | Cc1ccc(C2CCCCC2)c(OC2(C(=O)NS(=O)(=O)c3cccc(N4CC(C)(NC(=O)OC(C)(C)C)C4)n3)CC2)c1 [Example 2-50, Tert-butyl (1-(6-(N-(1-(2-cyclohexyl-5-methylphenoxy)cyclopropane-1-carbonyl)sulfamoyl)pyridin-2-yl)-3-methylazetidin-3-yl)carbamate] |
| 621 | 1760 | 85 | 3 | Cc1ccc(C2CCCCC2)c(OC2(C(=O)NS(=O)(=O)c3cccc(N4CCOC(C)C4)n3)CC2)c1 (stereo not shown) [Example 2-51, 1-(2-Cyclohexyl-5-methylphenoxy)-N-((6-(2-methylmorpholino)pyridin-2-yl)sulfonyl)cyclopropane-1-carboxamide] |
| 416 | 1290 | 75 | 7 | Cc1ccc(C2CCCCC2)c(OC2(C(=O)NS(=O)(=O)c3cccc(N4CCO[C@@H](C)C4)n3)CC2)c1 [Example 2-52, (S)-1-(2-Cyclohexyl-5-methylphenoxy)-N-((6-(2-methylmorpholino)pyridin-2-yl)sulfonyl)cyclopropane-1-carboxamide] |
| 416 | 1590 | 82 | 2 | Cc1ccc(C2CCCCC2)c(OC2(C(=O)NS(=O)(=O)c3cccc(N4CCO[C@H](C)C4)n3)CC2)c1 [Example 2-53, (R)-1-(2-Cyclohexyl-5-methylphenoxy)-N-((6-(2-methylmorpholino)pyridin-2-yl)sulfonyl)cyclopropane-1-carboxamide] |
| 513 | 650 | 70 | 14 | Cc1ccc(C2CCCCC2)c(OC2(C(=O)NS(=O)(=O)c3cccc(N4CCN(c5ccccc5)CC4)n3)CC2)c1 [Example 2-54, 1-(2-Cyclohexyl-5-methylphenoxy)-N-((6-(4-phenylpiperazin-1-yl)pyridin-2-yl)sulfonyl)cyclopropane-1-carboxamide] |
| 512 | 640 | 91 | 13 | Cc1ccc(C2CCCCC2)c(OC2(C(=O)NS(=O)(=O)c3cccc(N4CCN(c5ccc(F)cc5)CC4)n3)CC2)c1 [Example 2-55, 1-(2-Cyclohexyl-5-methylphenoxy)-N-((6-(4-(4-fluorophenyl)piperazin-1-yl)pyridin-2-yl)sulfonyl)cyclopropane-1-carboxamide] |
| 381 | 2510 | 83 | 40 | Cc1ccc(S(=O)(=O)N2CC3(CCN3c3cccc(S(=O)(=O)NC(=O)C4(Oc5cc(C)ccc5C5CCCCC5)CC4)n3)C2)cc1 [Example 2-56, 1-(2-Cyclohexyl-5-methylphenoxy)-N-((6-(6-tosyl-1,6-diazaspiro[3.3]heptan-1-yl)pyridin-2-yl)sulfonyl)cyclopropane-1-carboxamide] |
| 328 | 3080 | 102 | 12 | O=C(NS(=O)(=O)c1cccc(N2CC(O)C2)n1)C1(Oc2cc(Cl)ccc2C2CCCCC2)CC1 [Example 2-57, 1-(5-Chloro-2-cyclohexylphenoxy)-N-((6-(3-hydroxyazetidin-1-yl)pyridin-2-yl)sulfonyl)cyclopropane-1-carboxamide] |
| 184 | 3070 | 34 | 28 | Cc1ccc(C2CCC(F)(F)CC2)c(OC2(C(=O)NS(=O)(=O)c3cccc(N4CCC5(CC4)CC(=O)c4cc(F)ccc4N5)n3)CC2)c1 [Example 3-1, 1-(2-(4,4-Difluorocyclohexyl)-5-methylphenoxy)-N-((6-(6′-fluoro-4′-oxo-3′,4′-dihydro-1′H-spiro[piperidine-4,2′-quinolin]-1-yl)pyridin-2-yl)sulfonyl)cyclopropanecarboxamide] |
| 172 | 4420 | 48 | 371 | C[C@@H](CO)Nc1cccc(S(=O)(=O)NC(=O)C2(Oc3cc(F)ccc3C3CCC(F)(F)CC3)CC2)n1 [Example 3-2] |
| 318 | 3850 | 87 | 92 | Cc1ccc(C2CCC(F)(F)CC2)c(OC2(C(=O)NS(=O)(=O)c3cccc(NC[C@@H](C)O)n3)CC2)c1 [Example 3-4, (R)-1-(2-(4,4-Difluorocyclohexyl)-5-methylphenoxy)-N-((6-((2-hydroxypropyl)amino)pyridin-2-yl)sulfonyl)cyclopropane-1-carboxamide] |
| 363 | 3970 | 64 | 52 | Cc1ccc(C2CCC(F)(F)CC2)c(OC2(C(=O)NS(=O)(=O)c3cccc(N[C@H](C)CO)n3)CC2)c1 [Example 3-5] |
| 380 | 2660 | 57 | 57 | Cc1ccc(C2CCC(F)(F)CC2)c(OC2(C(=O)NS(=O)(=O)c3cccc(N4CC(C)(NC(=O)OC(C)(C)C)C4)n3)CC2)c1 [Example 3-6, Tert-butyl (1-(6-(N-(1-(2-(4,4-difluorocyclohexyl)-5-methylphenoxy)cyclopropane-1-carbonyl)sulfamoyl)pyridin-2-yl)-3-methylazetidin-3-yl)carbamate] |
| 258 | 3410 | 51 | 35 | COc1ccc(C2CCC(F)(F)CC2)c(OC2(C(=O)NS(=O)(=O)c3cccc(N4CCC[C@H](CO)C4)n3)CC2)c1 [Example 3-7, (S)-1-(2-(4,4-Difluorocyclohexyl)-5-methoxyphenoxy)-N-((6-(3-(hydroxymethyl)piperidin-1-yl)pyridin-2-yl)sulfonyl)cyclopropane-1-carboxamide] |
| 134 | 4670 | 34 | 568 | Cc1ccc(C)c(OC2(C(=O)NS(=O)(=O)c3cccc(N4CCOC[C@@H]4C)n3)CC2)c1 [Example 4-2, (S)-1-(2,5-Dimethylphenoxy)-N-((6-(3-methylmorpholino)pyridin-2-yl)sulfonyl)cyclopropane-1-carboxamide] |
| 590 | 2810 | 82 | 10 | Cc1ccc(C2CCCC2)c(OC2(C(=O)NS(=O)(=O)c3cccc(NC[C@H](C)O)n3)CC2)c1 [Example 4-5, (S)-1-(2-Cyclopentyl-5-methylphenoxy)-N-((6-((2-hydroxypropyl)amino)pyridin-2-yl)sulfonyl)cyclopropane-1-carboxamide] |
